# Data reported in patent EP1353942B1, “PEPTIDE INHIBITORS OF HIV ENTRY” (WHITEHEAD INSTITUTE FOR BIOMEDICAL RESEARCH, priority 2000, dated 2010).
# Read-outs that look alike come from different tables or passages of the source.
# Legend:
# [1] = Sedimentation equilibrium (analytical ultracentrifugation); format: physicochemical; conditions: for Mobs/Mcalc: 20 µM peptide solutions in PBS, 3.0 being a discrete trimer
# Description: Sedimentation Equilibrium. All measurements were recorded on a Beckman XL-A analytical ultracentrifuge equipped with an An-60 Ti rotor. Lyophilized peptide was resuspended in water, and the peptide concentration was determined (Edelhoch, 1967). The solution was diluted to 100-200 µM and then dialized overnight against PBS. Following dialysis, the concentration was redetermined and the appropriate dilutions were made, using the dialysis buffer. The samples were centrifuged at speeds ranging from 19,000 to 25,000 RPM.
# (§1) The following Table summarizes the biophysical data and inhibitory activity for the chimeric coiled coil N peptides. The first column (θ222nm) is circular dichroism data, representing the helicity of each peptide. The lower the number, the more helical. The second column is the melting temperature and signifies the temperature at which half of the peptide is unfolded. The next column (Mobs/Mcalc) signifies the oligomeric state of the peptide, with 3.0 being a discrete trimer. The final column is the concentration at which each peptide is at half maximal inhibitory potency for viral infection. Table 1. Biophysical data and HIV-1 inhibitory activity
# (§2) The second column is the ellipticity at 222 nm of a 20 µM solution of peptide in PBS. The third column lists the midpoint of thermal denaturation of 10 µM solutions of peptide in PBS.
# HIV-1 = tested on: HIV-1
# Description: HIV Infectivity Assay. Inhibitory activity was determined in an HIV luciferase assay (Chen et al., 1994). Specifically, virus was made by cotransfecting 293T cells with an HIV-1 genome containing a frame-shift mutation in env and luciferase replacing the nef gene (NL43LucR-E-) along with pCMVHXB2, an expression vector with the HXB2 gp160 gene. The resultant virus is only viable for one round of infection since its genome lacks the envelope gene. The cellular debris was removed by low-speed centrifugation. The remaining viral supernatant was used to infect HOS-CD4/Fusion cells (N. Landau, National Institutes of Health AIDS Reagent Program) in the presence of the potentially inhibitory peptides. Two days post-infection, the cells were lysed and luciferase activity was monitored on a Wallac AutoLumat LB953 luminometer (Gaithersburg, MD). IC50s (the peptide concentration at which half of the viral infection is inhibited) were calculated by fitting the data to a Langmuir equation [y = k/(1+[peptide]/IC50)], where y = luciferase activity and k is a scaling constant.
# [2] = Thermal denaturation followed by circular dichroism at 222 nm; format: physicochemical
# Description: (§3) Circular Dichroism. All CD measurements were performed on an Aviv 62 DS cirucular dichroism spectrometer. Standard scans were performed on 10 µM solutions of peptide in PBS (50 mM sodium phosphate, 150 mM sodium chloride [pH 7.4]) from 200 to 260 nm in a 1 cm pathlength cuvette with a 5 second averaging time. The mean residue ellipticity (θ) was calculated by dividing the raw signal by peptide concentration (M), pathlength (mm) and number of amino acids. Percent helicity was calculated according to Chen et al. (Biochemistry, 13, 1974, p3350). Thermal denaturation scans of 10 µM peptide solutions in PBS were recorded at 222 nm. The peptide was heated at two degree intervals starting at 4°C, with an equilibration time of 1.5 minutes and an averaging time of 60 seconds.
# as §1, §2
# [3] = Circular dichroism (ellipticity at 222 nm, helicity); format: physicochemical; conditions: IZN17 at 20 µM
# Description: as §3
# as §1, with “Biophysical data and HIV-1 inhibitory activity” left out
# [4] = target: HIV-1 gp41 (C peptide region), from HXB2 gp160 envelope on pseudotyped virus (HIV-1 (HXB2)) (UniProt P04578); assay: cell-based or functional assay
Substance,Mobs/Mcalc [1],"oligomeric state (in words) ([1]; sedimentation equilibrium, IZN17 at 20 µM)","IC50 (HIV-1; concentration of peptide at which half of viral infectivity is inhibited, HOS-CD4/Fusion cells, HXB2 envelope, tentative values)","IC50 (HIV-1; read-out: IC50 in the viral infectivity assay, viral infectivity assay)",thermal denaturation temperature relative to IQN17 ([2]; In 2 M GuHCl),Melting Temperature ([2]; midpoint of thermal denaturation of 10 µM solutions of peptide in PBS),melt (thermal unfolding) ([2]; no denaturant),helicity (in words) [3],"IC50 (nm), HIV-1 luciferase viral infectivity assay (HXB2 env pseudotyped virus on HOS-CD4/Fusin cells) [4]"
Ac-IKKEIEAIKKEQEAIKKKIEAIEKLLQLTVWGIKQLQARIL-NH2 [IZN17],3.05,discretely trimeric,5.6 nM,~5.6 nM,ten degrees higher,>100 °C,above 100 °C,helical,–
Ac-YGGIKKEIEAIKKEQEAIKKKIEAIEKEIVQARQLLSGIVQQQNNLLRAIEAQQH-NH2 [IZN26],∼2.87,–,–,–,–,–,–,–,–
IZN17 (peptide),–,–,–,–,–,–,–,–,5.6 nM
